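Five compound concentrations were applied to cells in 96-well plates for 48 hours; endpoints were derived by simple linear interpolation of the resulting dose-response curve. Here, GI50 denotes the concentration required for 50% inhibition of growth.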 The source made the active and inactive calls. No stated cut-off is given here; in the data, active = GI50 up to about 1.1 µM and inactive = higher.
Legend:
Experiment in all cases: NCI tumour cell line growth inhibition, 48 h
[1] = test system: COLO 205
[2] = test system: CAKI-1
[3] = test system: UO-31
[4] = test system: LOX IMVI
[5] = test system: MDA-MB-231
[6] = test system: Malme-3M
[7] = test system: SF-268
[8] = test system: CCRF-CEM
[9] = test system: RPMI-8226
[10] = test system: T47D
[11] = test system: NCI/ADR-RES
[12] = test system: OVCAR-8
[13] = test system: KM12
[14] = test system: MDA-MB-435
[15] = test system: PC-3
[16] = test system: NCI-H522
[17] = test system: OVCAR-3
[18] = test system: ACHN
[19] = test system: HCT-116
[20] = test system: NCI-H23

SMILES | GI50 [1] | GI50 [2] | GI50 [3] | GI50 [4] | GI50 [5] | GI50 [6] | GI50 [7] | GI50 [8] | GI50 [9] | GI50 [10] | GI50 [11] | GI50 [12] | GI50 [13] | GI50 [14] | GI50 [15] | GI50 [16] | GI50 [17] | GI50 [18] | GI50 [19] | GI50 [20]
Cc1ccccc1Nc1nc(NNC(=O)Cc2ccccc2)nc(NNC(=O)c2ccncc2)n1 | > 10 µM (inactive) | > 10 µM (inactive) | > 10 µM (inactive) | > 10 µM (inactive) | > 10 µM (inactive) | > 10 µM (inactive) | > 10 µM (inactive) | > 10 µM (inactive) | > 10 µM (inactive) | > 10 µM (inactive) | > 10 µM (inactive) | > 10 µM (inactive) | > 10 µM (inactive) |  |  |  |  |  |  | 
Cc1cc(C)c2c(c1)CC1(Cc3c(C)cc(C)cc3C1=O)C2=O (stereo not given) | > 100 µM (inactive) | > 100 µM (inactive) | > 100 µM (inactive) | > 100 µM (inactive) | > 100 µM (inactive) | 92.9 µM (inactive) | > 100 µM (inactive) | > 100 µM (inactive) | > 100 µM (inactive) |  | > 100 µM (inactive) | > 100 µM (inactive) | > 100 µM (inactive) | > 100 µM (inactive) | > 100 µM (inactive) | > 100 µM (inactive) | > 100 µM (inactive) | > 100 µM (inactive) |  | 
O=C(c1cccc2ccccc12)C1(Br)S(=O)(=O)OCCOS1(=O)=O | > 100 µM (inactive) | > 100 µM (inactive) | > 100 µM (inactive) | > 100 µM (inactive) | > 100 µM (inactive) | > 100 µM (inactive) |  |  | > 100 µM (inactive) |  | > 100 µM (inactive) | > 100 µM (inactive) | > 100 µM (inactive) | > 100 µM (inactive) |  |  | > 100 µM (inactive) | > 100 µM (inactive) | > 100 µM (inactive) | > 100 µM (inactive)
Cc1cc(=O)oc2cc(OCC(O)COC(C)C)ccc12 (stereo not given) | > 100 µM (inactive) | > 100 µM (inactive) | > 100 µM (inactive) | 88.3 µM (inactive) | > 100 µM (inactive) | > 100 µM (inactive) | > 100 µM (inactive) | > 100 µM (inactive) | > 100 µM (inactive) | > 100 µM (inactive) | > 100 µM (inactive) | > 100 µM (inactive) | > 100 µM (inactive) |  | > 100 µM (inactive) | > 100 µM (inactive) | > 100 µM (inactive) | > 100 µM (inactive) | > 100 µM (inactive) | > 100 µM (inactive)
COC(=O)CNC(=O)CNC(=O)CSc1nnc(COc2ccc(Cl)cc2)n1-c1ccccc1 | > 100 µM (inactive) | 17.6 µM (inactive) | 21.4 µM (inactive) | 23.2 µM (inactive) | 19.1 µM (inactive) | 18.7 µM (inactive) | 20.8 µM (inactive) | 25.3 µM (inactive) | 29.4 µM (inactive) |  | > 100 µM (inactive) | > 100 µM (inactive) | 21.3 µM (inactive) | 18.7 µM (inactive) | 52.7 µM (inactive) | 5.46 µM (inactive) | 19.8 µM (inactive) | > 100 µM (inactive) | 38.7 µM (inactive) | > 100 µM (inactive)
O=c1c2c3c(sc2nc2n1sc1nc4sc5c(c4c(=O)n12)CCCC5)CCCC3 | 26.6 µM (inactive) | 19.5 µM (inactive) | 18.5 µM (inactive) | > 79.4 µM (inactive) | 25.9 µM (inactive) |  | 42 µM (inactive) | 24.4 µM (inactive) | 22.2 µM (inactive) |  | 32.1 µM (inactive) | 56.6 µM (inactive) | > 89.7 µM (inactive) | 51.8 µM (inactive) | 54.5 µM (inactive) | 10.8 µM (inactive) | 24.2 µM (inactive) | 61.5 µM (inactive) | 35.7 µM (inactive) | 30.6 µM (inactive)
COc1c(CC=C(C)C)c(O)c(C(CC(C)C)c2c(O)c3c(c(C(C)=O)c2O)OC(C(C)(C)O)C3)c(O)c1C(C)=O (stereo not given) | 3.21 µM (inactive) | 3.93 µM (inactive) | 4.32 µM (inactive) | 4.78 µM (inactive) |  | 3.91 µM (inactive) | 4.53 µM (inactive) | 2.58 µM (inactive) | 0.968 µM (active) | 3.46 µM (inactive) | 3.44 µM (inactive) | 4.4 µM (inactive) | 3.7 µM (inactive) | 4.63 µM (inactive) | 3.15 µM (inactive) | 3.42 µM (inactive) | 6.08 µM (inactive) | 4.42 µM (inactive) | 3.64 µM (inactive) | 2.63 µM (inactive)
CCOP(=O)(Cc1nc(C#N)c(N)o1)OCC | > 100 µM (inactive) | > 100 µM (inactive) |  | > 100 µM (inactive) | > 100 µM (inactive) | > 100 µM (inactive) | > 100 µM (inactive) | > 100 µM (inactive) | > 100 µM (inactive) |  |  |  | > 100 µM (inactive) | > 100 µM (inactive) | > 100 µM (inactive) | > 100 µM (inactive) | > 100 µM (inactive) | > 100 µM (inactive) | > 100 µM (inactive) | 
